Measurements reported in patent US10800752B2, “Substituted naphtho[2,3-b]furans as water-soluble prodrugs for preventing and/or treating cancer” (BOSTON BIOMEDICAL, INC., priority 2015, dated 2020).

How the values were obtained:
[1] = Evaluation of a conversion rate to 2-acetylnaphtho[2,3-b]furan-4,9-dione in human plasma; type: in vitro ADME; conditions: Human plasma, 1 umol/L, 37° C., incubation time 120 min
Outline: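 Compounds at 1 umol/L incubated at 37° C in human plasma, CD1 mouse plasma or pH 7.4 phosphate buffer, sampled up to 120 minutes. After acidified acetonitrile protein removal, parent loss and conversion to 2-acetylnaphtho[2,3-b]furan-4,9-dione measured by LC-MS (ESI positive).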

[2] = Evaluation of a conversion rate to 2-acetylnaphtho[2,3-b]furan-4,9-dione in CD1 mouse plasma; type: in vitro ADME; conditions: CD1 mouse plasma, 1 umol/L, 37° C., incubation time 120 min
Outline: (§1)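 Compounds at 1 umol/L were incubated at 37° C in human plasma, CD1 mouse plasma or pH 7.4 phosphate buffer, sampled up to 120 minutes, acid/acetonitrile-deproteinised and analysed by LC-MS (ESI positive). Conversion (%) derived from the peak area ratio of the active form to phenytoin internal standard.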

[3] = Evaluation of a conversion rate to 2-acetylnaphtho[2,3-b]furan-4,9-dione in pH 7.4 phosphate buffer solution; type: physicochemical; conditions: Phosphate buffer solution (pH 7.4), 1 umol/L, 37° C., incubation time 120 min
Outline: as §1

Solubility test = conditions: 50 mmol/L glycine buffer solution (pH 2.0), room temperature, 24 hours shaking
Protocol: A water-soluble prodrug was added into 50 mmol/L glycine buffer solution (pH 2.0). After shaking at room temperature for 24 hours, the mixture was filtered through a membrane filter, and then the filtrate was measured with HPLC.
The measurement condition of HPLC is as described below. HPLC condition column: Acquity UPLC BEH C18, 1.7 um, 50×2.1 mm

[4] = Pharmacokinetics test, intravenous administration; conditions: for Plasma Compound Concentration: Activated form 1 in plasma, 10.5 mg/kg (i.v.)
Protocol: For water-soluble prodrugs described in the EXAMPLES, the concentration of 2-acetylnaphtho[2,3-b]furan-4,9-dione (Activated form 1) in plasma was measured. Animal species, an administration method, a method of making standard solutions, and a method of measuring the concentration in plasma are as described below.
Animal: Seven-week-aged male CD1 (ICR) mice were used as an experimental animal.
Administration method: A test substance was weighed, and then dissolved in 50 mmol/L glycine buffered saline (pH 2.0) to produce an administration solution. The body weight of a mouse was measured, and the prepared administration solution was intravenously administered.
Blood collecting method: Heparin was added to a blood-collecting vessel, and blood was collected from a mouse. To the obtained blood, 46% of Citric acid was added in 1% volume. It was then centrifuged to obtain plasma. To the collected plasma, 1 mol/L HCl was added in 10% volume to produce a plasma sample. A sample obtained by adding 10% volume of 1 mol/L HCl to blank plasma was used as a blank sample.
Making of a standard solution: One mg of a test sample was weighed, and dissolved in 10 mL of acetonitrile using a measuring flask to make a standard solution of 100 ug/mL.
Measurement of the concentration in plasma: One hundred ug/mL of the standard solution was diluted in 50% acetonitrile solution to make calibration curve samples of target concentrations. Twenty uL of a blank sample was added to 18 uL of the calibration curve sample to make a plasma calibration curve sample. Eighteen uL of 50% acetonitrile solution was added to 20 uL of the administered plasma sample to make a sample for plasma analysis. One hundred uL of acetonitrile (containing 1% volume of 10 mol/L HCl) containing an internal standard was added to the plasma calibration curve sample and the sample for plasma analysis, respectively. It should be noted that phenytoin was used as the internal standard and its concentration was prepared in 100 nmol/L. 10 uL of each sample was analyzed with LC-MS. A calibration curve was made from a value (peak ratio) of the peak area of a test substance in MS divided by the peak area of the internal standard, and the concentrations of plasma calibration curve samples. The concentration in a sample was calculated from the peak ratio of each sample and the calibration curve.

Solution stability test = type: physicochemical; conditions: for % Residual ratio: 25 umol/L
Protocol: For Example 6, Example 11, and Example 22, the stability in each pH was measured. Test compounds at a concentration of 25 umol/L in respective buffer solutions prepared at pH 2.0, 3.0, 5.0, 7.4, and 9.0 were allowed to stand at 25° C. After 0, 3, 6, 9, 12, and 24 hours, they were measured with HPLC.
The buffer solutions used at respective pHs are as described below. pH 2.0: 50 mmol/L glycine buffer solution pH 3.0: 50 mmol/L citrate buffer solution pH 5.0: 50 mmol/L citrate buffer solution pH 7.4: 50 mmol/L phosphate buffer solution pH 9.0: 50 mmol/L glycine buffer solution
The measurement condition of HPLC is as described below.
Column temperature: 40° C.
Mobile phase: A: 0.1% trifluoroacetic acid-containing water

COC(=O)[C@@H](N)CCNC(=O)Oc1c2ccccc2c(OC(=O)NCC[C@H](N)C(=O)OC)c2oc(C(C)=O)cc12.Cl.Cl [Example 11]
% Measurement value (conversion rate to 2-acetylnaphtho[2,3-b]furan-4,9-dione) [1]: 100%
% Measurement value (conversion rate to 2-acetylnaphtho[2,3-b]furan-4,9-dione) [2]: 100%
% Measurement value (conversion rate to 2-acetylnaphtho[2,3-b]furan-4,9-dione) [3]: 58%
Solubility in pH 2.0 buffer solution (Solubility test): >5.0 mg/mL
Plasma Compound Concentration ([4]; 0.083 hr, animal 1): 3740 nM
Plasma Compound Concentration ([4]; 0.083 hr, animal 2): 4410 nM
Plasma Compound Concentration ([4]; 0.083 hr, animal 3): 5290 nM
Plasma Compound Concentration ([4]; 0.083 hr, mean): 4480 nM
Plasma Compound Concentration ([4]; 0.5 hr, animal 1): 690 nM
Plasma Compound Concentration ([4]; 0.5 hr, animal 2): 1170 nM
Plasma Compound Concentration ([4]; 0.5 hr, animal 3): 1390 nM
Plasma Compound Concentration ([4]; 0.5 hr, mean): 1080 nM
Plasma Compound Concentration ([4]; 1.0 hr, animal 1): 420 nM
Plasma Compound Concentration ([4]; 1.0 hr, animal 2): 620 nM
Plasma Compound Concentration ([4]; 1.0 hr, animal 3): 630 nM
Plasma Compound Concentration ([4]; 1.0 hr, mean): 560 nM
Plasma Compound Concentration ([4]; 2.0 hr, animal 1): 360 nM
Plasma Compound Concentration ([4]; 2.0 hr, animal 2): 280 nM
Plasma Compound Concentration ([4]; 2.0 hr, animal 3): 80 nM
Plasma Compound Concentration ([4]; 2.0 hr, mean): 240 nM
production of 2-acetylnaphtho[2,3-b]furan-4,9-dione (Activated form 1) (in words) ([4]; intravenously administered to mice): rapidly produced
stability in solution (in words) (Solution stability test; pH 2.0, 25° C.): very stable
% Residual ratio (Solution stability test; pH 2.0, 25° C., 0 hr): 100%
% Residual ratio (Solution stability test; pH 2.0, 25° C., 3 hr): 100%
% Residual ratio (Solution stability test; pH 2.0, 25° C., 6 hr): 102%
% Residual ratio (Solution stability test; pH 2.0, 25° C., 9 hr): 102%
% Residual ratio (Solution stability test; pH 2.0, 25° C., 12 hr): 104%
% Residual ratio (Solution stability test; pH 2.0, 25° C., 24 hr): 102%
stability in solution (in words) (Solution stability test; pH 3.0, 25° C.): sufficient stability
% Residual ratio (Solution stability test; pH 3.0, 25° C., 0 hr): 100%
% Residual ratio (Solution stability test; pH 3.0, 25° C., 3 hr): 98.6%
% Residual ratio (Solution stability test; pH 3.0, 25° C., 6 hr): 97.3%
% Residual ratio (Solution stability test; pH 3.0, 25° C., 9 hr): 98.8%
% Residual ratio (Solution stability test; pH 3.0, 25° C., 12 hr): 94.5%
% Residual ratio (Solution stability test; pH 3.0, 25° C., 24 hr): 90.7%
% Residual ratio (Solution stability test; pH 5.0, 25° C., 0 hr): 100%
% Residual ratio (Solution stability test; pH 5.0, 25° C., 3 hr): 36.0%
% Residual ratio (Solution stability test; pH 5.0, 25° C., 6 hr): 14.0%
% Residual ratio (Solution stability test; pH 5.0, 25° C., 9 hr): 5.2%
% Residual ratio (Solution stability test; pH 5.0, 25° C., 12 hr): 0%
% Residual ratio (Solution stability test; pH 5.0, 25° C., 24 hr): 0%
% Residual ratio (Solution stability test; pH 7.4, 25° C., 0 hr): 100%
% Residual ratio (Solution stability test; pH 7.4, 25° C., 3 hr): 0%
% Residual ratio (Solution stability test; pH 7.4, 25° C., 6 hr): 0%
% Residual ratio (Solution stability test; pH 7.4, 25° C., 9 hr): 0%
% Residual ratio (Solution stability test; pH 7.4, 25° C., 12 hr): 0%
% Residual ratio (Solution stability test; pH 7.4, 25° C., 24 hr): 0%
% Residual ratio (Solution stability test; pH 9.0, 25° C., 0 hr): 100%
% Residual ratio (Solution stability test; pH 9.0, 25° C., 3 hr): 0%
% Residual ratio (Solution stability test; pH 9.0, 25° C., 6 hr): 0%
% Residual ratio (Solution stability test; pH 9.0, 25° C., 9 hr): 0%
% Residual ratio (Solution stability test; pH 9.0, 25° C., 12 hr): 0%
% Residual ratio (Solution stability test; pH 9.0, 25° C., 24 hr): 0%
